Measured values from patent US20100008965A1, “BIOCOMPATIBLE MEDICAL PRODUCTS HAVING ENHANCED ANTI-THROMBOGENIC PROPERTIES” (priority 2008, published 2010).

Tests used:
Format in all cases: cell-based, human
HCAEC [1] = test: HCAEC spreading on coated glass slides, static; conditions: 5 μg/cm^2 coating, two hours, p<0.0001
Protocol: (§1) 22×25×1 mm glass slides (Electron Microscopy Sciences, Hatfield, Pa.) were washed sequentially in 100% acetone, ethanol and HCl (2:1), and deionized and Milli-Q H2O, followed by autoclave sterilization. Slides were coated with one of the following PBS-solubilized extracellular matrix proteins at 5 μg/cm^2: (a) human type I collagen (Sigma), (b) human plasma fibronectin (Chemicon), or (c) CS-1 peptide (American Peptide Company). All coated slides were dried overnight at room temperature, rinsed with PBS, and blocked with a 0.01% (w/v) heat-inactivated BSA-solution at room temperature for one hour. HCAEC or HUVEC were seeded onto the slides in basal medium at 1×10^4 cells/cm^2 and permitted to attach and spread for two hours at 37° C. Cells were fixed with 4% (w/v) paraformaldehyde and co-stained for fluorescence microscopic analysis using Texas Red®-X phalloidin (Molecular Probes, Eugene, Oreg.) and DAPI (EMB Chemicals, Inc., San Diego, Calif.). Fluorescence micrographs were captured through a 10× objective on a Nikon Diaphot 200 inverted epifluorescence microscope (Nikon, Inc., Melville, N.Y.) using an Olympus DP70 digital camera (Olympus America, Inc., Melville, N.Y.). Image Tool software package version 3.0 (University of Texas Health Science Center, San Antonio, Tex.) was used to quantify endothelial cell surface area.

HCAEC [2] = test: HCAEC cell binding assay to immobilized fibronectin polypeptides (crystal violet); conditions: immobilized peptide, 8 h, on average
Protocol: Human coronary artery endothelial cell (HCAEC) and human umbilical vein endothelial cell (HUVEC) primary human cells were obtained (Cambrex Corporation, East Rutherford, N.J.) and maintained according to the manufacturer's instructions at 37° C. and 5% CO2. HCAEC were grown in microvascular endothelial cell medium (EBM-2 MV, Cambrex) supplemented with 5% fetal bovine serum, 0.1% human epidermal growth factor, 0.04% hydrocortisone, 0.1% vascular endothelial growth factor, 0.4% human fibroblast growth factor-B, 0.1% R^3-insulin-like growth factor-1, 0.1% ascorbic acid, and 0.1% gentamicin and amphotericin-B (GA-1000). HUVEC were grown in endothelial cell medium (EBM, Cambrex) supplemented with 2% fetal bovine serum, 0.4% bovine brain extract, 0.1% human epidermal growth factor, 0.1% hydrocortisone, and 0.1% gentamicin and amphotericin-B (GA-1000). HCAEC and HUVEC were subcultured at 90-95% confluence using 0.05% trypsin-EDTA (Invitrogen, Carlsbad, Calif.) and used for experiments between passages 3-7 (HUVEC) or 5-11 (HCAEC).
HCAEC or HUVEC cell binding assays to immobilized recombinant fibronectin polypeptides were performed in order to ascertain which polypeptide(s) maximally support(s) alpha-4 integrin-mediated cell adhesion. Connecting Segment-1 (SEQ ID NO:1), EILDV (SEQ ID NO:2), RGDS (SEQ ID NO:3) (positive control), RGES (SEQ ID NO:4) (negative control), and EILEVPST (SEQ ID NO:5) (negative control) and were immobilized by drying overnight at room temperature in Immobilizer™ Amino 96-well microplates (Nalge Nunc International, Rochester, N.Y.). RGES, EILDV, and EILEVPST were incubated at a molar equivalent concentration equal to 200 μg RGDS per well. CS-1 was incubated at 50 μg/well. On a molar basis per well, this equates to approximately twenty-fold less CS-1 relative to RGDS. […] Cells were manually counted, and their concentration adjusted to yield a total cell population of 5×10^4 cells/well. […] Spectrometric absorbance values were read at 562 nm at room temperature using a ThermoMax microplate reader (Molecular Devices Corporation, Sunnyvale, Calif.).

HUVEC [3] = test: HUVEC spreading on coated glass slides, static; conditions: 5 μg/cm^2 coating, two hours, p<0.01
Protocol: as §1

HUVEC [4] = test: HUVEC retention under unidirectional fluid flow; conditions: 15 dyne/cm^2, thirty minutes; CS-1 p=0.1, fibronectin p=0.07
Protocol: In addition to the above, 75×38×1 mm glass microscope slides (Fisher Scientific Research, Pittsburgh, Pa.) were sterilized and coated overnight with human plasma fibronectin or CS-1 peptide at 5 μg/cm^2, or with PBS only. Slides were incubated for one hour at room temperature with a 0.01% (w/v) sterile-filtered BSA solution. HCAEC or HUVEC were seeded in basal medium on slides at 1.85×10^4 cells/cm^2 and permitted to adhere for eight hours under static conditions at 37° C. Fluid flow was performed using parallel plate flow chambers connected to fluid flow loops, as described in Pavalko et al., Fluid shear stress inhibits TNF-alpha-induced apoptosis in osteoblasts: a role for fluid shear stress-induced activation of PI3-kinase and inhibition of caspase-3. J Cell Phys 194, 194, 2002. Briefly, endothelial cell-seeded slides were secured within flow chambers and connected to fluid flow loops. All flows were performed in a 37° C. environment with serum-free culture medium that was continually bathed in a 5% CO2 atmosphere. […] Fluorescence micrographs were captured as described above. […] Nuclei were counted from five equally distributed visual fields per slide and pooled together for each substrate condition. Data was calculated as percent (%) cell retention, where % retention=[(average nuclei count)flow÷(average nuclei count)static]×100.

**Q.** For “CS-1: full-length 25 amino acid polypeptide, first 25 amino acid sequence of the fibronectin type IIICS domain (DELPQLVTLPHPNLHGPEILDVPST; Homo sapien)”, which “HCAEC spread area relative to the non-ECM-coated control substrate” value (HCAEC [1]) is on record?
**A.** The value was “statistically significant increase”.

**Q.** And the “more of the total HCAEC population adhered relative to RGES” value (HCAEC [2])?
**A.** The value was “about 20%”.

**Q.** And the “HUVEC spread area relative to the non-ECM-coated control substrate” value (HUVEC [3])?
**A.** Its value is “statistically significant increase”.

**Q.** What about the “HUVEC percent retention versus control substrate” value (HUVEC [4]) of the same substance?
**A.** The value was “not statistically distinguishable from the control substrate”.
